Results as given in US20130345249A1, “Formulations for the prevention and treatment of Wolbachia-related disease” (priority 2011, published 2013).

What was measured:
Brugia malayi = Brugia malayi drug feeding assay (worm mortality); type: in vivo
Description: Small molecules of interest found by the primary tissue culture screen must be tested in animal models to determine their relevance to Wolbachia in vivo. Because Wolbachia are vital endosymbionts of Brugia malayi worms that cause Elephantiasis, the next important step was to validate whether compounds found in the high-throughput screen could affect the viability of those worms. To assay this, we performed a pilot feeding assay by distributing Brugia malayi into 12-well plates containing tissue culture media and different compounds added to a final concentration of 100 uM. […] In this feeding assay, we observed that worms fed with pararosanaline pamoate ceased movement within 2 hours, whereas all other treatments took substantially longer to affect the worms (FIG. 3). Our preliminary dose-response tests of pararosanaline pamoate indicate that the lethal feeding dose lies between 25 uM and 10 uM.

Wolbachia [1] = assay: Microscopy-based high-throughput screen in Wolbachia-infected Drosophila tissue culture cells; type: cell-based; settings: 100 uM in media, 3 days incubation
Description: In collaboration with the microscope company Molecular Devices, we optimized journaling software that analyzes the level of cytoplasmic DAPI (Wolbachia) fluorescence per cell in all wells of the plate. […] In this pilot, compounds were added to Wolbachia-infected cells at a final concentration of 100 uM in media and allowed to incubate for 3 days. Cells were then fixed, stained, imaged, and analyzed by automated machinery.

Wolbachia [2] = assay: Wolbachia titer in ovarian tissues of fed D. melanogaster (confocal microscopy, image-based quantification); type: in vivo, Wolbachia (in Drosophila melanogaster)
Description: As the next validation step, it was important to determine whether the compounds found in our screen can cure a host of Wolbachia while also permitting host viability. To investigate this, we first performed a feeding assay using Wolbachia-infected Drosophila melanogaster flies. Flies were provided with fly food containing pararosanaline pamoate at concentrations of 100 uM or less, and viability was scored over time. […] To then determine whether the treatment affected the quantity of Wolbachia carried by the D. melanogaster host, we fed pararosaniline pamoate to Wolbachia-infected fruit flies for 3 days and analyzed Wolbachia titer in ovarian tissues. This was performed through use of confocal microscopy and image-based bacterial quantification software.

Wolbachia [3] = assay: Confocal imaging of Wolbachia in treated Brugia malayi worms; type: in vivo

## N=C1C=CC(=C(c2ccc(N)cc2)c2ccc(N)cc2)C=C1 [Pararosaniline Pamoate]
Brugia malayi; 100 uM in tissue culture media, 12-well plates
  time until worms ceased movement: ≤ 2 h
Brugia malayi; drug feeding assay
  worm viability after treatment (FIG. 3): Inviable
Wolbachia [1]
  cytoplasmic DAPI (Wolbachia) fluorescence per cell / hit in tissue culture screen: identified by the screening methods of the invention
Wolbachia [1]; listed as pararosanaline pamoate
  cytoplasmic DAPI (Wolbachia) fluorescence per cell / hit in tissue culture screen: found in the pilot tissue culture screen
Wolbachia [2]; average quantity within a single focal plane of oocytes
  Wolbachia titer in Drosophila oocytes (FIG. 5): reduced
Wolbachia [2]; fed for 3 days, ovarian tissues (oocytes), preliminary
  Wolbachia titer relative to control levels: 60%
Wolbachia [3]
  number of Wolbachia carried by host, worms killed by drug vs untreated worms: no visible difference

## COC(=O)[C@H]1[C@H]2C[C@H]3c4[nH]c5cc(OC)ccc5c4CCN3C[C@H]2C[C@@H](OC(=O)c2cc(OC)c(OC)c(OC)c2)[C@@H]1OC [Isoreserpine]
Wolbachia [1]
  cytoplasmic DAPI (Wolbachia) fluorescence per cell / hit in tissue culture screen: identified by the screening methods of the invention

## Cc1ncc(CO)c(CO)c1O.Cl [pyroxidine HCl]
Wolbachia [1]
  cytoplasmic DAPI (Wolbachia) fluorescence per cell / hit in tissue culture screen: found in the pilot tissue culture screen

## CC(C)(C)CC(C)(C)c1ccc(O)c(Cc2ccc(Cl)cc2Cl)c1 [Clofoctol]
Wolbachia [1]
  cytoplasmic DAPI (Wolbachia) fluorescence per cell / hit in tissue culture screen: identified by the screening methods of the invention
